Entries after “also recorded” stand apart in the source; their conditions may differ.
Assays:
[1] = tested on: dexamethasone-induced thymic and splenic atrophy; assay: Dexamethasone-induced thymic and splenic atrophy in mice; type: in vivo, CD-1 mice; parameters: Thymus wt / Spleen wt: unit not given here; conditions: for Approximate Potency Compared to Fluasterone in Protecting Against DEX-induced Thymic and Splenic Involution: fluasterone = 1, mice; for protection against DEX-induced thymic and splenic atrophy: CD-1 mice
Procedure: Administration of dehydroepiandrosterone (DHEA, 60 mg/kg, s.c.) for three days partially reverse thymic and splenic atrophy induced by a single injection of dexamethasone (1.6 mg/mouse). In this experiment, the efficacy of either 10 mg/kg or 20 mg/kg DHEA administered s.c. versus the effect of 10 mg/kg or 20 mg/kg fluasterone was investigated.
5% Cremophor (polyethoxylated castor oil; Sigma Chemicals)-95% saline vehicle was prepared using 95 mL of sterile 0.9% NaCl (filtered through sterile 0.22 micron filter) and 5 mL of Cremophor. The Cremophor was dissolved by swirling for approximately 5 minutes.
Dexamethasone solutions were prepared by dissolving dexamethasone (Sigma Chemicals) in absolute ethanol. For example, 71.9 mg of dexamethasone was dissolved in 2.9 mL of absolute ethanol. In order to prevent precipitation, the solution was kept on a hotplate between injections.
For the 10 mg/kg suspension, 25.7 mg of DHEA was weighed out, transferred to a glass scintillation vial, and 10.3 mL of the Cremophor-saline vehicle was added. The DHEA suspension was homogenized using a Tissumizer at 80% power for 30 sec. The Tissumizer was rinsed with 70% ethanol prior to homogenization. After the 10 mg/kg DHEA suspension was homogenized the probe was rinsed 2× with 50 mL of absolute ethanol, then with 50 mL of 70% ethanol, and then dried with sterile gauze. For the 20 mg/kg DHEA suspension, 50.9 mg DHEA was suspended in 10.2 mL of Cremophor-saline vehicle.
19.4 mg of fluasterone was weighed out and transferred to a glass scintillation vial. 7.8 mL of Cremophor-saline vehicle was added to the vial and the contents of the vial were homogenized with a Tissumizer as described previously. Prior to preparing the 20 mg/kg fluasterone, the probe was rinsed 2× with 50 mL of absolute ethanol and 1× with 50 mL of 70% ethanol. For the 20 mg/kg suspension, 47.0 mg was weighed out and transferred to a glass scintillation vial. 9.4 mL of Cremophor-saline vehicle was added to the vial and the contents of the vial were homogenized with a Tissumizer as described above.
Female CD-1 mice, 43-45 days old, were obtained from Charles River Laboratories. The mice were housed 5 per cage in plastic shoebox cages with ad libitum access to Purina chow 5015 and water in the Pharmacy CAF with 12 hr of alternating light and darkness.
Prior to the experiment the mice were weighed, separated into 6 groups containing 5 mice each and treated as follows:
Mice were treated s.c. with 0.1 mL of 5% Cremophor-95% saline for three days. On the third day, the mice were also treated s.c. with 1.6 mg of dexamethasone dissolved in 0.06 mL of absolute. ethanol.
Mice were treated s.c. with 0.25 mg of DHEA suspended in 0.1 mL of 5% Cremophor-95% saline for three days. On the third day, the mice were also treated s.c. with 1.6 mg of dexamethasone dissolved in 0.06 mL of absolute ethanol.
Mice were treated s.c. with 0.5 mg of DHEA suspended in 0.1 mL of 5% Cremophor-95% saline for three days. On the third day, the mice were also treated s.c. with 1.6 mg of dexamethasone dissolved in 0.06 mL of absolute ethanol.
Mice were treated s.c. with 0.25 mg of fluasterone suspended in 0.1 mL of 5% Cremophor-95% saline for three days. On the third day, the mice were also treated s.c. with 1.6 mg of dexamethasone dissolved in 0.06 mL of absolute ethanol.
Mice were treated s.c. with 0.5 mg of fluasterone suspended in 0.1 mL of 5% Cremophor-95% saline for three days. On the third day, the mice were also treated s.c. with 1.6 mg of dexamethasone dissolved in 0.06 mL of absolute ethanol.
All s.c. injections were made in the nape. All mice were lightly anesthetized while the s.c. injections were done.
Twenty-four hours after dexamethasone treatment, the mice were euthanized by an overdose of isoflurane. The spleen and thymus were removed, cleaned of any adventitia, rinsed, blotted on filter paper, and weighed. […]

[2] = tested on: dexamethasone-induced thymic and splenic atrophy; conditions: C3H/HeN mice; 60 mg/kg s.c. 3 days; single DEX dose 1.6 mg; Blauer et al. 1991; cited from earlier work
[3] = Fate of orally administered 14C-fluasterone
[4] = target: glucose 6-phosphate dehydrogenase (G6PDH) (Homo sapiens, UniProt P11413); conditions: Schwartz et al., Cancer Res. 48:4817-4822, 1988; cited from earlier work
[5] = Table 15, steroid 10 mg/kg in Cremophor-saline + dexamethasone
[6] = Table 12, 10 mg/kg s.c. 3 days + dexamethasone 1.6 mg s.c. on day 3, 24 h after dexamethasone
[7] = Table 12, 20 mg/kg s.c. 3 days + dexamethasone 1.6 mg s.c. on day 3, 24 h after dexamethasone
[8] = Table 14, micronized steroid 20 mg/kg + dexamethasone
[9] = Table 14, micronized steroid 60 mg/kg + dexamethasone
[10] = Table 16, steroid 20 mg/kg + dexamethasone
[11] = Table 16, steroid 40 mg/kg + dexamethasone

glucose 6-phosphate dehydrogenase (G6PDH), sequence (P11413 whole entry): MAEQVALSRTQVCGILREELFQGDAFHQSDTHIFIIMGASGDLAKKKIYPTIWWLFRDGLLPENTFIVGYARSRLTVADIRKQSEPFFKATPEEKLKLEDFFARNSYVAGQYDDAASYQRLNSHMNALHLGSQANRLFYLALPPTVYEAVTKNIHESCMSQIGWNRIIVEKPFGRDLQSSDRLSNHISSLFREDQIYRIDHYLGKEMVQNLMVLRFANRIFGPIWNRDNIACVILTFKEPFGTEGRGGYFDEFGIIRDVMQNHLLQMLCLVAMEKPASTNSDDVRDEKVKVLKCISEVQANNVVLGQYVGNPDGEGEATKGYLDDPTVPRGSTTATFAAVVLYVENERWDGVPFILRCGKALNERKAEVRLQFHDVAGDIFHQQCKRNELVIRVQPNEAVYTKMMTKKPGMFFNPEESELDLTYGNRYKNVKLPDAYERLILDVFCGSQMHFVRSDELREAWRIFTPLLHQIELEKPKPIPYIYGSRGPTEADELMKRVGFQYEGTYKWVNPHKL

## C[C@@H]1C[C@H]2[C@@H]3CC=C4CCCC[C@]4(C)[C@H]3CC[C@]2(C)C1=O [16α-methyl-5-androsten-17-one]
[1]; [5]
  Body Weight: 25.3 ± 0.8
  Spleen wt: 37.8 ± 6.1
  Spleen wt/BW: 1.5 ± 0.3
  Thymus wt: 28.0 ± 1.7
  Thymus wt/BW: 1.1 ± 0.1
[1]
  Approximate Potency Compared to Fluasterone in Protecting Against DEX-induced Thymic and Splenic Involution: about ⅙ or less

## C[C@@H]1C[C@H]2[C@@H]3CCC4=CC(=O)C=C[C@]4(C)[C@@]3(F)[C@@H](O)C[C@]2(C)[C@@]1(O)C(=O)CO [DEXAMETHASONE, dexamethasone, reference compound]
[1]; Table 12, dexamethasone 1.6 mg s.c. once after vehicle s.c. 3 days, 24 h after dexamethasone
  Thymus wt: 33.2 ± 1.3

## C[C@]12CC[C@H](O)CC1=CC[C@@H]1[C@@H]2CC[C@]2(C)C(=O)CC[C@@H]12 [DHEA, dehydroepiandrosterone, reference compound]
[1]; 10 mg/kg
  protection against DEX-induced thymic and splenic atrophy: inactive
[1]; 20 mg/kg
  protection against DEX-induced thymic and splenic atrophy: no apparent protection; also recorded: inactive
[1]; 60 mg/kg
  protection against DEX-induced thymic and splenic atrophy: significantly protected
[1]; [6]
  Body Weight: 23.7 ± 1.0
  Spleen wt: 46.4 ± 3.7
  Spleen wt/BW: 2.0 ± 0.2
  Thymus wt: 31.7 ± 2.6
  Thymus wt/BW: 1.3 ± 0.2
[1]; [7]
  Body Weight: 24.5 ± 2.1
  Spleen wt: 51.4 ± 2.2
  Spleen wt/BW: 2.1 ± 0.2
  Thymus wt: 36.6 ± 5.2
  Thymus wt/BW: 1.5 ± 0.2
[1]; [8]
  Body Weight: 27.4 ± 4.0
  Spleen wt: 56.8 ± 8.1
  Spleen wt/BW: 2.1 ± 0.1
  Thymus wt: 39.3 ± 4.1
  Thymus wt/BW: 1.4 ± 0.1
[1]; [9]
  Body Weight: 27.0 ± 3.1
  Spleen wt: 79.9 ± 16.0
  Spleen wt/BW: 3.0 ± 0.4
  Thymus wt: 63.2 ± 7.8
  Thymus wt/BW: 2.3 ± 0.2
[1]
  Approximate Potency Compared to Fluasterone in Protecting Against DEX-induced Thymic and Splenic Involution: about ⅙
[2]
  effect on DEX-induced thymic and splenic atrophy: significantly reduces

## C[C@]12CCCCC1=CC[C@@H]1[C@@H]2CC[C@]2(C)C(=O)[C@H](F)C[C@@H]12 [^14C-Fluasterone]
[3]
  metabolism after oral administration: extensive first-pass hepatic and/or gastrointestinal metabolism

## C[C@]12CCCC[C@@H]1CC[C@@H]1[C@@H]2CC[C@]2(C)C(=O)[C@H](F)C[C@@H]12 [compound 8356, 16α-fluoro-5α-androstan-17-one]
[1]; [10]
  Body Weight: 25.2 ± 2.9
  Spleen wt: 54.0 ± 4.5
  Spleen wt/BW: 2.0 ± 0.3
  Thymus wt: 40.8 ± 5.8
  Thymus wt/BW: 1.6 ± 0.1
[1]; [11]
  Body Weight: 25.2 ± 1.4
  Spleen wt: 51.2 ± 3.0
  Spleen wt/BW: 2.0 ± 0.2
  Thymus wt: 54.4 ± 4.5
  Thymus wt/BW: 2.2 ± 0.2
[1]
  Approximate Potency Compared to Fluasterone in Protecting Against DEX-induced Thymic and Splenic Involution: about ⅛
[4]
  G6PDH inhibition compared with fluasterone: more potent G6PDH inhibitor than fluasterone
